# The source made the active and inactive calls.
# Tests used:
# [1] = inhibitors of Vif binding to APOBEC3G peptide, primary screen, biochemical, TR-FRET, GST-Vif 1-94, biotin-A3G peptide, dose response retest (AID 1117319); format: functional;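 note: TR-FRET signal of purified GST-Vif binding a biotinylated A3G peptide; inhibitors lower the FRET signal by blocking Vif and A3G binding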
# [2] = miR-122 activators in hepatoma reporter cells, dose response, cell-based, Huh7 psiCHECK-miR122, Renilla luciferase, cherry-picked (AID 651956); format: functional;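 note: huh7 hepatoma cells stably carrying a psiCHECK-2 miR-122 sensor plasmid; renilla luciferase signal reporting endogenous miR-122 activity after 48 h compound exposure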
# Paired box protein Pax-8 = Paired box protein Pax-8 (Homo sapiens, UniProt Q06710); assay: inhibitors of PAX8-driven TPO luciferase reporter, dose response, RMG-I cells, cherry-pick (AID 687027); format: functional, cell-based;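 note: luciferase reporter driven by Pax8 target thyroperoxidase promoter measured by SteadyGlo luminescence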
# Sequence of Paired box protein Pax-8 (Q06710 whole entry): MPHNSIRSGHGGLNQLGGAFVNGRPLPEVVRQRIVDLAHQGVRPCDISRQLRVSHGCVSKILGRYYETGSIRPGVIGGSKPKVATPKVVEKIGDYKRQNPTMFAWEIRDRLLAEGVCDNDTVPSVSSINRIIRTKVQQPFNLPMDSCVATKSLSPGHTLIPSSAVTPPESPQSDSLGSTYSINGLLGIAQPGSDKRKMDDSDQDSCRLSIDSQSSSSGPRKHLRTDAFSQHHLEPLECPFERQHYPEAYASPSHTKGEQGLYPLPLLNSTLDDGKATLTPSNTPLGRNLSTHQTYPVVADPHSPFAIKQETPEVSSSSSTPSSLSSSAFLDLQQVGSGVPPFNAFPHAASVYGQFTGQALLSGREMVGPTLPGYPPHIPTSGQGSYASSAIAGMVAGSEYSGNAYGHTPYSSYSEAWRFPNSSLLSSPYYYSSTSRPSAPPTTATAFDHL
# [3] = NIH:OVCAR-3 ovarian cancer cell cytotoxicity, dose response, PAX8 inhibitor project, plate reader, dry powder samples (AID 743044); format: functional, cell-based
# [4] = IGROV1 ovarian cancer cell cytotoxicity, dose response, PAX8 inhibitor project, plate reader, dry powder samples (AID 743043); format: functional, cell-based; conditions: IGROV-1
# [5] = intracellular Trypanosoma cruzi inhibitors in host cells – cell-based, plate reader, cherry-pick samples, set 3, dose response (AID 651818); format: functional;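 note: compounds incubated with infected cells for about four days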
# [6] = cytotoxicity in OVCAR8 ovarian cancer cells, dose response, PAX8 project, cell-based, plate reader, dry powder samples (AID 743197); format: functional; conditions: OVCAR-8
# cells [7] = format: functional, cell-based
# [8] = molecular target: T1, Trace amine-associated receptor 1 (Homo sapiens, UniProt Q96RJ0); assay: Counterscreen for agonists of the human trace amine associated receptor 1 (hTAAR1): Fluorescence-based cell-based high throughput dose response assay to identify hTAAR1 agonist that also desensitize TAAR1 receptor response.; format: functional
# T1 sequence (Q96RJ0 whole entry): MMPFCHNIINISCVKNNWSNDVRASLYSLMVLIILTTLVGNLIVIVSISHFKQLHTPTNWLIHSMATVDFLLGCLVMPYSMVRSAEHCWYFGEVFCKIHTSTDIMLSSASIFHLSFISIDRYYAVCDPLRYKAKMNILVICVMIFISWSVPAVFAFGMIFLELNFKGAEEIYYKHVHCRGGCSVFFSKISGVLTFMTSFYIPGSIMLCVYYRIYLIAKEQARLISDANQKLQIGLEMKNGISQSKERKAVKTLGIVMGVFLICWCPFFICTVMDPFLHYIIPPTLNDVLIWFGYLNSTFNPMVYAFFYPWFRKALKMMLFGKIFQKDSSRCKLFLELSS
# [9] = molecular target: T1, Trace amine-associated receptor 1; assay: Fluorescence-based cell-based high throughput dose response assay to identify agonists of the human trace amine associated receptor 1 (TAAR1).; format: functional
# cells [10] = format: functional, cell-based; remark: listed apart in the source
# Fatty acid synthase [11] = molecular target: T2, Fatty acid synthase (Homo sapiens, UniProt P49327); assay: FAS thioesterase domain inhibitors, dose response, biochemical, endpoint fluorescence intensity, uHTS hits (AID 624327); format: functional;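 note: fluorescence from hydrolysis of an O-methyl fluorescein acyl ester substrate by the enzyme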
# T2 sequence (P49327 whole entry, the tested form may be a part): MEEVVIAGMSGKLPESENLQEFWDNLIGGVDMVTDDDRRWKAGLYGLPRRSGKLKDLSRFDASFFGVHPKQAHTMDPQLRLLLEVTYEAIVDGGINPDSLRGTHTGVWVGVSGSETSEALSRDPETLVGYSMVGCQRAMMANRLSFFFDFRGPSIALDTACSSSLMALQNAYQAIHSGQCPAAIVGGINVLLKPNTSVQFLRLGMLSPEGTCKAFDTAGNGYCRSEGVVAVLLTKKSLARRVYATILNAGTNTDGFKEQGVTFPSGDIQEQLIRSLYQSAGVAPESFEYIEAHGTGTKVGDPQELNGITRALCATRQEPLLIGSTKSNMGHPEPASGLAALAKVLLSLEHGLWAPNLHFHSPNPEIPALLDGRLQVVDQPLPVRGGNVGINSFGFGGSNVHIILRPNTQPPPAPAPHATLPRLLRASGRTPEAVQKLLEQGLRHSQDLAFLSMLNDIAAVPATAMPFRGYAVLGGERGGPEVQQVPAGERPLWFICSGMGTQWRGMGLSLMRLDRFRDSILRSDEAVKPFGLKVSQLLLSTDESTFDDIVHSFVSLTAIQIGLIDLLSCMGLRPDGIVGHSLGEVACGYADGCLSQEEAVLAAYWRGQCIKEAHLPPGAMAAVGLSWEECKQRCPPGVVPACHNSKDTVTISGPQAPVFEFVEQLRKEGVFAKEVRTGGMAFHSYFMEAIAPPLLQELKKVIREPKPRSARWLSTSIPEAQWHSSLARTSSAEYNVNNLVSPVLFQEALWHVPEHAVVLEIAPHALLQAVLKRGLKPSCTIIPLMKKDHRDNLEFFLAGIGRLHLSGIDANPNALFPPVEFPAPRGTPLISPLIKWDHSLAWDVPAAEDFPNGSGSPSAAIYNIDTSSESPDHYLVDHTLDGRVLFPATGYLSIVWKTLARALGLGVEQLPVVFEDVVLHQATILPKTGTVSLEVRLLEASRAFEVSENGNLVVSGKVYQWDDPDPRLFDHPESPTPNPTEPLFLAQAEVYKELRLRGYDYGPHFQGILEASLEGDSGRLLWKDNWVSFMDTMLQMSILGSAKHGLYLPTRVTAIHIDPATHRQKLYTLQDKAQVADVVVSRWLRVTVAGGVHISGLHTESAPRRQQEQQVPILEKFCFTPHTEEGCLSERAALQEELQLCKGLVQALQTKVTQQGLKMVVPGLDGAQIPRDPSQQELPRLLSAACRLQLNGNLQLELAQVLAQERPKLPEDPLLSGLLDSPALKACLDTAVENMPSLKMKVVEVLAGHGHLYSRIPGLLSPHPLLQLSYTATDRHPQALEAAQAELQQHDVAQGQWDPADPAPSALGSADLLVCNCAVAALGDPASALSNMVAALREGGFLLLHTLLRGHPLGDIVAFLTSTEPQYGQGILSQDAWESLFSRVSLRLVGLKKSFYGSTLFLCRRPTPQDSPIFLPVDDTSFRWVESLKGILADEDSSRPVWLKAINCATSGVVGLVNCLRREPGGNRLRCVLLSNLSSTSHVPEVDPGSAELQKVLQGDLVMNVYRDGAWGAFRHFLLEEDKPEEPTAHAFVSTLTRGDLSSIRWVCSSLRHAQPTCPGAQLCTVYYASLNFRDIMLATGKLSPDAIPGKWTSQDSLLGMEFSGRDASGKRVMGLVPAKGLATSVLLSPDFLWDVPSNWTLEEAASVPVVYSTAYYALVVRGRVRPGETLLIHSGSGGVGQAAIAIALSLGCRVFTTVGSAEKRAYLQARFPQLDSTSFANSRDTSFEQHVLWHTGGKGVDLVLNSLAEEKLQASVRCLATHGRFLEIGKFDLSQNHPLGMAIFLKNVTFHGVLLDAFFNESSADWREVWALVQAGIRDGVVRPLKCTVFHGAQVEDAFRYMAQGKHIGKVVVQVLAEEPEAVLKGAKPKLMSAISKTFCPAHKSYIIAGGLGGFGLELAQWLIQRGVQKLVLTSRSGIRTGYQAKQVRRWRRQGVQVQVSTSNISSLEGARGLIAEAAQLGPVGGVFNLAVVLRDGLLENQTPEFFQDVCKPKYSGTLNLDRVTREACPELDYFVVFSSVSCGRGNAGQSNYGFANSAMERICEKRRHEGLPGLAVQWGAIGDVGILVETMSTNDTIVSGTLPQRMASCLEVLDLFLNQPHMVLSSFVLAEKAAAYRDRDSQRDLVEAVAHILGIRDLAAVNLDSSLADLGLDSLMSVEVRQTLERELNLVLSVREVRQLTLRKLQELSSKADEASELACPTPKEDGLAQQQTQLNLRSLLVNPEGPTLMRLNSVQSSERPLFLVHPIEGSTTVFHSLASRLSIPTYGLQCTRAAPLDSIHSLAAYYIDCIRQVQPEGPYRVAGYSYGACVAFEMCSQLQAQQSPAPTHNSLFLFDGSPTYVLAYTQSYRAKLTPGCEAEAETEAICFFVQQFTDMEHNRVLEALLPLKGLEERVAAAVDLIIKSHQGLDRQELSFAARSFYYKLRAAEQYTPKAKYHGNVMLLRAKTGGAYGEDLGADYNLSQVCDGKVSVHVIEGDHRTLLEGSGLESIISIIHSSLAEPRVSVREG
# Fatty acid synthase [12] = molecular target: T2, Fatty acid synthase; assay: FAS thioesterase domain inhibitors, dose response, biochemical, kinetic fluorescence intensity (AID 624326); format: functional;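 note: rate of fluorescence rise from hydrolysis of a fluorogenic O-methyl fluorescein ester substrate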
# [13] = molecular target: T3, DNA repair and recombination protein RAD54-like (Homo sapiens, UniProt Q92698); assay: inhibitors of human RAD54 branch migration, confirmation, biochemical, fluorescence, cherry-picked samples, dose series (AID 651657); format: functional
# T3 sequence (Q92698 whole entry): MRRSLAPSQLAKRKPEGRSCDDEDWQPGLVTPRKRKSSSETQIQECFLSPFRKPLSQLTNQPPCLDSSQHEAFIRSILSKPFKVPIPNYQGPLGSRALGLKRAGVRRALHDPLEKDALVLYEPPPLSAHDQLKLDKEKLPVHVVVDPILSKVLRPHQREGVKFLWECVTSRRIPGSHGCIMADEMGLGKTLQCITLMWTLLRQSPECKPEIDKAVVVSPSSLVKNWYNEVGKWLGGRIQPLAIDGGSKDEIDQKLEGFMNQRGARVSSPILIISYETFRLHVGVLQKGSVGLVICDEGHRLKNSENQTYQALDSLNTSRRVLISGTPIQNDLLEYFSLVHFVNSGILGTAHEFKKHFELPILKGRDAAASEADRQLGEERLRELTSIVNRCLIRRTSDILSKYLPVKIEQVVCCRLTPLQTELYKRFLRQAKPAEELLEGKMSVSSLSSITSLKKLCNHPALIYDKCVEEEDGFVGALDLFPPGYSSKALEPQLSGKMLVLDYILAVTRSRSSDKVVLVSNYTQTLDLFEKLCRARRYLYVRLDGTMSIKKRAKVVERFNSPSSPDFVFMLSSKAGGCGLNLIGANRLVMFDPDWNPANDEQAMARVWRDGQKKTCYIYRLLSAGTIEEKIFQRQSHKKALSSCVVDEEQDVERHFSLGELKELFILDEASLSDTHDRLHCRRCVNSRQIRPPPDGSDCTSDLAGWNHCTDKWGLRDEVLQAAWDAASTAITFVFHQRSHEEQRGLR
# [14] = NIH-3T3 fibroblast cytotoxicity, dose response, cytotoxicity control, cell-based, fluorescence, Alamar Blue, secondary assay (AID 2327); format: functional;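 note: NIH-3T3 mouse fibroblasts cultured with fluconazole at 8 µg/mL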
# [15] = molecular target: Protein-tyrosine kinase 2-beta (Homo sapiens, UniProt Q14289);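 note: potency of inhibitors of PYK2 kinase phosphorylation of poly-GT substrate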
# Sequence of Protein-tyrosine kinase 2-beta (Q14289 whole entry): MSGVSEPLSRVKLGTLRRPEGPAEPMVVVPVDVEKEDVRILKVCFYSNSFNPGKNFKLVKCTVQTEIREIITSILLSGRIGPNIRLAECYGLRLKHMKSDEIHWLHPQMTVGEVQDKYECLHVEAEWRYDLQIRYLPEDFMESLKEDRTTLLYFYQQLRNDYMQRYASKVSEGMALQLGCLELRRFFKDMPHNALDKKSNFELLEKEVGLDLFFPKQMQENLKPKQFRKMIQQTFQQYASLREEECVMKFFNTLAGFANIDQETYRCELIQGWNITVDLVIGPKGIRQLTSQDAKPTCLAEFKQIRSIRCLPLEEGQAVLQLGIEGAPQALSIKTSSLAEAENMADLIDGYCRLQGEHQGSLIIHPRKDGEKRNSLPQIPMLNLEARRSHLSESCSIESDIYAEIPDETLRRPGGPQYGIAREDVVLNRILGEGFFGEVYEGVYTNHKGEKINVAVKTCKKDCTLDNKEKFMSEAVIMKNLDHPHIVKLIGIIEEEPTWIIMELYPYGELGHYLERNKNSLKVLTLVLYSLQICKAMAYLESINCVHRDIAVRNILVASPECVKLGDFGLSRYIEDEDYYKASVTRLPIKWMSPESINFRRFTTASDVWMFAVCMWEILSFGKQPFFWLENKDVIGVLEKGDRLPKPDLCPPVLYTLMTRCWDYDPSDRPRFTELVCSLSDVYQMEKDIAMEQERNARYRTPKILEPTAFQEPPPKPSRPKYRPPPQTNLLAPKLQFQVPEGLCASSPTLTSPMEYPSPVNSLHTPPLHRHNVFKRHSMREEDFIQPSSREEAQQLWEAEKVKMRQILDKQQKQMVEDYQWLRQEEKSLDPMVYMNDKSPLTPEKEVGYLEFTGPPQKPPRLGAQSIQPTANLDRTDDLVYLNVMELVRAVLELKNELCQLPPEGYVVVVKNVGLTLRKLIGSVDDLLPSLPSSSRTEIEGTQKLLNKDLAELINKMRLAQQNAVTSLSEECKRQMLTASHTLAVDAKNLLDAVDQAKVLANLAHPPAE
# [16] = C. albicans growth with fluconazole, confirmation, fluorescence, retest (AID 2467); format: functional, cell-based
# [17] = molecular target: T4, Adenosylmethionine-8-amino-7-oxononanoate aminotransferase (Mycobacterium tuberculosis, UniProt P9WQ81); assay: Mycobacterium tuberculosis BioA enzyme inhibitor Measured in Biochemical System Using Plate Reader - 2163-02_Inhibitor_Dose_CherryPick_Activity.; format: functional, Mycobacterium tuberculosis UT205
# T4 sequence (P9WQ81 whole entry): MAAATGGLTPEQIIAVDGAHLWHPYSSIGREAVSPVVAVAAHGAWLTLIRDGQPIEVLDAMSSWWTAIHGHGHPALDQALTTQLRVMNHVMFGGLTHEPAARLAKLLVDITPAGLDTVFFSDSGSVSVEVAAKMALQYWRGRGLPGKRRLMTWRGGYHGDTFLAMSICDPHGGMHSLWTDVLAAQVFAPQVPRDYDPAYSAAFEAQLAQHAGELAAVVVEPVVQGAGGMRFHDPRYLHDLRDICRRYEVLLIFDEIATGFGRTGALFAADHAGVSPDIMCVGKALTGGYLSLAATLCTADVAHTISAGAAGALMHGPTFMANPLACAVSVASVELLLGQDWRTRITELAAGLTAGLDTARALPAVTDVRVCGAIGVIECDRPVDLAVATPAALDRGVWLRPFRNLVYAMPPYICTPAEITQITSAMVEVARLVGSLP
# [18] = molecular target: Voltage-dependent T-type calcium channel subunit alpha-1H (Homo sapiens, UniProt O95180); format: functional;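 note: channel activity triggered by adding a high calcium stimulation buffer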
# [19] = molecular target: Peroxisome proliferator-activated receptor gamma/Nuclear receptor coactivator 1 (Homo sapiens, UniProt P37231); format: functional;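 note: agonist potency as compounds enhance coactivator SRC-1 recruitment to PPARgamma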
# [20] = molecular target: Peroxisome proliferator-activated receptor gamma/Nuclear receptor coactivator 2 (Homo sapiens, UniProt P37231); format: functional;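 note: agonist potency for raising coactivator recruitment to the receptor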
# [21] = molecular target: Peroxisome proliferator-activated receptor gamma/Nuclear receptor coactivator 3 (Homo sapiens, UniProt P37231); format: functional;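 note: agonist potency for raising coactivator recruitment to the receptor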
# [22] = molecular target: T5, Voltage-gated N-type calcium channel alpha-1B subunit/Amyloid beta A4 precursor protein-binding family A member 1 (Homo sapiens, UniProt Q00975+Q02410); format: protein assay
# [23] = molecular target: Induced myeloid leukemia cell differentiation protein Mcl-1 (Homo sapiens, UniProt Q07820); format: functional
# Sequence of Induced myeloid leukemia cell differentiation protein Mcl-1 (Q07820 whole entry): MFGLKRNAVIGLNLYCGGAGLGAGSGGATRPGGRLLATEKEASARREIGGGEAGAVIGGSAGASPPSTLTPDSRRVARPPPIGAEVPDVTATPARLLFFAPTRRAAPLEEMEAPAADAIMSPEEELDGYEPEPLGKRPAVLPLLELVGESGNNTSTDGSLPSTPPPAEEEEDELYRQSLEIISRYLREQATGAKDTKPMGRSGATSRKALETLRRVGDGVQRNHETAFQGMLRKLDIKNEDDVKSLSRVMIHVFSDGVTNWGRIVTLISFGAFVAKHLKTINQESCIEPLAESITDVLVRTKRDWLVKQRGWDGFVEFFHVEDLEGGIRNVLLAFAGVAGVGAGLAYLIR
# [24] = molecular target: T5, Voltage-gated N-type calcium channel alpha-1B subunit/Amyloid beta A4 precursor protein-binding family A member 1; format: protein assay; remark: listed apart in the source
# [25] = molecular target: T6, Long-chain-fatty-acid--AMP ligase FadD28 (Mycobacterium tuberculosis, UniProt P9WQ59); assay: Fluorescence polarization aasay to screen for inhibitors that compete for the binding of FadD28 to a bisubstrate Measured in Biochemical System Using Plate Reader - 2147-01_Inhibitor_Dose_CherryPick_Activity.; format: functional, Mycobacterium tuberculosis H37Rv
# T6 sequence (P9WQ59 whole entry): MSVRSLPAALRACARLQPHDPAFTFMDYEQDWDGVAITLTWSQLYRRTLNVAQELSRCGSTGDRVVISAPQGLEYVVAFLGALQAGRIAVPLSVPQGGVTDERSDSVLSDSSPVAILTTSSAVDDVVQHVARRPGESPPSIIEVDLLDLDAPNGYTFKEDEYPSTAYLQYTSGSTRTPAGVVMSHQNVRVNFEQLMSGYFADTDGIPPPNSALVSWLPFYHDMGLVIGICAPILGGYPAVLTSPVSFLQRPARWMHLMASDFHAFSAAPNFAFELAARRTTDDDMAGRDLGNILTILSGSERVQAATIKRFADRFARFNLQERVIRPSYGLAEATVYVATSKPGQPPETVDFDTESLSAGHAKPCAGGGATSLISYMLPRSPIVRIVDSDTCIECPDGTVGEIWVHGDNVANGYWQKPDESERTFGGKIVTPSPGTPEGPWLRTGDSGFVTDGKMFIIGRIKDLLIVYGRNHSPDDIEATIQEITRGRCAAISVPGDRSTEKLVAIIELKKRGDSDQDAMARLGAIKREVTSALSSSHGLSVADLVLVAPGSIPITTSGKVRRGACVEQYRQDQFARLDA
smiles,measurement,setting,value
O=C(Nc1ccc2c(c1)OCCO2)C1CCC1,IC50,[1],> 100 µM (active)
C[C@@H]1CN([C@H](C)CO)S(=O)(=O)c2ccc(C#CC3CC3)cc2O[C@@H]1CN(C)C(=O)c1cccc(F)c1,AC50,[2],22.3 µM (active)
C[C@@H]1CN([C@@H](C)CO)C(=O)Cc2cc(NC(=O)CCC(F)(F)F)ccc2O[C@H]1CN(C)Cc1ccc(Oc2ccccc2)cc1,AC50,Paired box protein Pax-8,10.6 µM (active)
same,AC50,[3],26.4 µM (active)
same,AC50,[4],41.7 µM (active)
C[C@H]1CN([C@@H](C)CO)C(=O)Cc2cc(NC(=O)Nc3ccc(C(F)(F)F)cc3)ccc2O[C@H]1CN(C)Cc1ccc(Cl)c(Cl)c1,AC50,[5],2.92 µM (active)
O=C1CN(S(=O)(=O)Cc2ccccc2)C[C@@H]2[C@@H](c3ccc(C#CC4CC4)cc3)[C@@H](CO)N12,AC50,[6],53.1 µM (active)
same,AC50,Paired box protein Pax-8,4.66 µM (active)
same,AC50,[3],5.98 µM (active)
same,AC50,[4],61 µM (active)
CN(CCc1ccccc1)C(C(=O)c1ccc2c(c1)OCO2)c1nnnn1-c1ccccc1NC(=O)OC(C)(C)C (configuration not stated),EC50,cells [7],> 29.9 µM (inactive)
same,IC50,[8],3.26 µM (active)
same,EC50,[9],0.881 µM (active)
same,IC50,cells [10],> 29.9 µM (inactive)
O=C(Nc1ccc(Cc2ccncc2)cc1)c1cc([N+](=O)[O-])ccc1N1CCOCC1,IC50,Fatty acid synthase [11],1.53 µM (active)
same,IC50,Fatty acid synthase [12],1.24 µM (active)
CC(C)(C)N(Cc1ccccc1)C(=O)COC(=O)c1ccc([N+](=O)[O-])o1,IC50,Fatty acid synthase [11],16.2 µM (active)
same,IC50,Fatty acid synthase [12],12.2 µM (active)
C[C@@H]1CN([C@@H](C)CO)C(=O)c2cc(N(C)C)ccc2O[C@@H]1CN(C)Cc1ccc(C(=O)Nc2ccccc2N)cc1,AC50,[5],3.57 µM (active)
COc1ccc2nc(C)cc(Nc3ccc(C)cc3)c2c1,AC50,[13],19.4 µM (active)
CCOc1cc2[nH]c(=S)n(Cc3ccc(C(=O)NCCCN(CC)CC)cc3)c(=O)c2cc1OCC,AC50,[13],40.1 µM (active)
CCOC(=O)CNC(=O)c1sc2ncnc(N3CCc4ccccc4C3)c2c1C,EC50,[14],> 150 µM (inactive)
same,IC50,[15],41.7 µM (not active)
same,EC50,[16],3.42 µM (active)
same,AC50,[17],4.06 µM (active)
CCn1cc(C(=O)NCCC2=CCCCC2)c(=O)c2cc(S(=O)(=O)N(C)C)ccc21,IC50,Fatty acid synthase [11],4.69 µM (active)
same,IC50,Fatty acid synthase [12],2.74 µM (active)
C[C@@H]1CN([C@H](C)CO)C(=O)c2cccc(NS(=O)(=O)c3ccc(Cl)cc3)c2O[C@@H]1CN(C)Cc1ccc(C(=O)Nc2ccccc2N)cc1,AC50,[5],9.17 µM (active)
CN1c2ccc(-c3ccccc3)cc2[C@H]2[C@H](CCN2C(=O)c2ccccc2F)[C@H]1CO,AC50,[17],0.183 µM (active)
CCCCn1nnc(NC(=O)c2ccc(-c3cccc(Cl)c3)o2)n1,IC50,[1],> 100 µM (active)
same,EC50,[18],4.23 µM (active)
COCC(=O)N(C)C[C@H]1Oc2cc(C#Cc3cccnc3)ccc2S(=O)(=O)N([C@H](C)CO)C[C@H]1C,AC50,[2],3.31 µM (active)
Cc1nnc(NC(=O)CSc2nc(C(C)C)nc3sc(C)c(C)c23)s1,AC50,[2],34.8 µM (active)
CC(C)CCNC(=O)NC(=O)COC(=O)/C=C/c1cnc2ccccc2n1,EC50,[19],49.5 µM (not active)
same,EC50,[20],32 µM (not active)
same,EC50,[21],35.9 µM (not active)
Cc1ccc2nsnc2c1S(=O)(=O)Nc1cccc2nsnc12,IC50,[15],6.7 µM (active)
CC(=O)c1ccc(N2CCN(S(=O)(=O)c3c(C(=O)N4CCCC4)c(C)n(C)c3C)CC2)cc1,AC50,[17],11.6 µM (active)
Nc1sc2c(c1C(=O)NCCc1ccccc1)CCC2,EC50,cells [7],> 29.9 µM (inactive)
same,IC50,[8],9.93 µM (active)
same,EC50,[9],3.36 µM (active)
same,IC50,cells [10],> 29.9 µM (inactive)
O=C(O)c1cccc(NCc2ccncc2)c1,IC50,[1],> 100 µM (active)
CCC1=NNc2cccc3c(OC)ccc1c23,IC50,[22],0.521 µM (active)
same,IC50,[15],2.15 µM (active)
same,IC50,[23],8.79 µM (not active)
same,IC50,[24],0.586 µM (active)
Cc1oc(-c2ccccc2Cl)nc1CS(=O)(=O)CC(=O)NCCc1ccccc1,EC50,cells [7],> 29.9 µM (inactive)
same,IC50,[8],8.19 µM (active)
same,EC50,[9],2.9 µM (active)
same,IC50,cells [10],18.3 µM (inactive)
C[C@H](CO)N1C[C@H](C)[C@H](CN(C)S(=O)(=O)c2ccc(F)cc2)Oc2c(NC(=O)CCCCCC(=O)Nc3ccccc3N)cccc2C1=O,AC50,[5],2.58 µM (active)
Clc1cccc2c3c([nH]c12)CCNC3,EC50,cells [7],> 29.9 µM (inactive)
same,IC50,[8],22.1 µM (inactive)
same,EC50,[9],1.36 µM (active)
same,IC50,cells [10],> 29.9 µM (inactive)
COc1ccc(C(=O)NCc2ccc(Cl)cc2)cc1S(=O)(=O)N1CCCC1,AC50,[25],4.67 µM (active)

# From ChEMBL document CHEMBL1201862, “PubChem BioAssay data set” (2004)
